Reference: patent US6593324B2, “Dervatives of quinoline as alpha-2 antagonists” (Orion Corporation, priority 2000, dated 2003)

How the values were obtained:
[1] = system: male NMRI mice; test: Antagonism of dexmedetomidine-induced locomotor inhibition; format: in vivo; settings: various doses 20 min before dexmedetomidine 50 nmol/kg s.c.; activity measured 20 min after; atipamezole effective at 0.3 and 1.0 μmol/kg s.c. (p<0.01); FIG. 1
Source text: Dexmedetomidine and atipamezole are very potent and specific alpha-2 adrenoceptor agonists and antagonists, respectively, which lack alpha-2 subtype selectivity (H. Scheinin et al., European Journal of Pharmacology, Molecular Section, vol.151(1), 1988, p.35-42). The alpha-2 agonist-induced sedation is known to be an alpha-2A-mediated phenomenon that can be antagonised by alpha-2 antagonists (J. Sallinen et al., Mol. Pharmacol. Vol.51, 1997, p.36-46, and A. Haapalinna et al., Naunyn-Schimiedeberg's Arch. Pharmacol. Vol.356, 1997, p.570-582). The sedative effect of alpha-2 agonists in mice is measured by the inhibition on locomotor activity. Therefore, we compared the ability of Compound I and atipamezole to antagonise the dexmedetomidine-induced locomotor inhibition to evaluate the in vivo alpha-2A adrenoceptor antagonism (and alpha-2C selectivity) of these compounds.
Spontaneous locomotor activity of a total of 76 male NMRI mice (B&K, Sweden) was measured by placing individual animals into a polypropylene animal cage (38×22×15 cm). The cages were surrounded with an infrared photobeam frame system designed for activity measurements (Photobeam Activity System PAS, Cage Rack, San Diego Instruments, San Diego, Calif., USA). […] Spontaneous locomotor activity was measured 20 min after dexmedetomidine injection.

[2] = system: Balb/c mice; test: Mouse forced swimming test; format: in vivo; settings: 0.3 μmol/kg 40 min before test; activity between 2 and 6 min; Compound 1 p=0.013, atipamezole p=0.52; FIG. 2
Source text: This can be observed for example employing the forced swimming test, in which a rat or mouse is put into a water-filled cylinder. After a vigorous period of attempts to escape animals adopt an immobile floating posture; the extent of the immobile period is monitored and can be reduced by antidepressants and stress-protective agents. Transgenic mice that lack functional alpha-2C adrenoceptor tolerated swim-stress better than their similarly treated wild-type controls (J. Sallinen et al., Mol. Psychiatry, vol.4, 1999, p.443-452). Therefore, an increase in the forced swimming activity can be used as a measure of in vivo alpha-2C selective antagonism of a compound.
The forced swim test was conducted as originally described employing the stress sensitive (J. Crawley and L. Davis, Brain Research Bulletin, vol.8, 1982, p.609-612, and U.S. Pat. No. 5,902,807) Balb/c mouse strain (B&K, Sweden). The mice were administered either with vehicle (0.1% DMSO, 5 ml/kg subcutaneously), Compound 10.3 μmol/kg, or atipamezole 0.3 μmol/kg 40 min before putting the mice into a vessel (10 cm diameter, 18.5 cm height, filled with 25° C. water up to 8 cm height). The cumulative activity of each mouse was measured between 2 and 6 min after introduction to the vessel. Only vigorous attempts to escape (climbing) were registered. The mice (a total of 96) were tested only once.

[3] = system: test animals; settings: literature report; cited from earlier work
[4] = system: brain; settings: employed doses of atipamezole; literature report; cited from earlier work

## CN1CCN(c2ccc(Nc3c4ccccc4nc4ccccc34)cc2)CC1 [Compound 1, Acridin-9-yl-[4-(4-methylpiperazin-1-yl)-phenyl]amine]
[1]
  antagonism of dexmedetomidine-induced sedation (locomotor inhibition): did not antagonise the alpha-2-agonist-induced sedation at all
[2]
  stress-protective effect: forced swimming activity (climbing) vs vehicle: tolerated clearly better stress-induced propagation of behavioural despair

## CCC1(c2cnc[nH]2)Cc2ccccc2C1 [atipamezole]
[3]
  stress-protective effect: did not have a clear stress-protective effect
[4]
  neurochemical effect: noradrenaline release in brain: stimulate noradrenaline release in brain
[1]
  antagonism of dexmedetomidine-induced sedation (locomotor inhibition): inhibited dexmedetomidine-induced sedation
[2]
  stress-protective effect: forced swimming activity (climbing) vs vehicle: did not have any clear effect on the activity
